According to patent US9789096B2, “Methods and compositions for selective and targeted cancer therapy” (Board of Regents of the University of Texas System, priority 2013, dated 2017):
Like-named read-outs stand apart in the source and are kept apart here.

Key:
Format in all cases: cell-based, human
HCC44 = test: Cell viability dose-response, HCC44; settings: Homo sapiens; for AC50: HCC44, Table 8, 12-point dose-response starting at 50 micromolar
Experimental: (§1) FIG. 6A. […] Cell viability is plotted vs. compound concentration. Compound was added to cells plated at 15% confluence in 96-well plates in RPMI-1640 media supplemented with 5% Fetal Bovine Serum and 2 mM L-Glutamine. After 4 days of incubation, ATP levels were measured using Cell Titer Glo (Promega). Data are presented as the average of 2 replicates ±SEM.
(§2) Selectivity may be measured by the half maximal inhibitory concentration (IC50), which, as used herein, is a measure of the effectiveness of a compound in killing cells. This quantitative measure indicates how much of a particular compound is needed to kill a particular cell population by half (e.g., as indicated by the amount of ATP). […] The IC50 can be determined by constructing a dose-response curve. The lower the IC50, the higher the potency, and the greater the difference between IC50 values for different cell lines (e.g., sensitive lines vs. insensitive lines, and sensitive lines vs. normal lines) the greater the selectivity. […]
(§3) With this information, we synthesized and tested a series of small molecules derived in conception from the oxalamide and chromone scaffold including N-acyl ureas, as shown in Tables 6-8. Each compound was tested in a 12-point dose-response study starting at 50 micromolar and decreasing in 3-fold increments to sub-nanomolar concentrations, in duplicate. Additionally, one or more additional cell line was tested in the same way.

H2009 = test: Cell viability dose-response, H2009; settings: Homo sapiens; for IC50: NCI-H2009; for AC50: NCI-H2009, Table 8
Experimental: as §1, §2, §3

H2122 = test: Cell viability dose-response, H2122; settings: Homo sapiens; for AC50: NCI-H2122, Table 8, 12-point dose-response starting at 50 micromolar
Method in brief: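 Viability read as total ATP (Cell Titer Glo) following 4 days' compound exposure, with IC50 derived from dose-response curves. Duplicate 12-point series, top concentration 50 micromolar with 3-fold steps, on cells seeded at 15% confluence in RPMI-1640, 5% FBS, 2 mM L-glutamine.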

H2073 = test: Cell viability dose-response, H2073; settings: Homo sapiens, NCI-H2073, 12-point dose-response starting at 50 micromolar, 3-fold increments, in duplicate; read-out: toxicity data, H2073
Experimental: as §1, §2, §3

[1] = HCC44, 12-point dose-response starting at 50 micromolar, 3-fold increments, in duplicate, read-out: toxicity data, HCC44
[2] = 12-point dose-response starting at 50 micromolar, 3-fold increments, in duplicate, read-out: toxicity data, H2009
[3] = NCI-H2122, 12-point dose-response starting at 50 micromolar, 3-fold increments, in duplicate, read-out: toxicity data, H2122
[4] = NCI-H2122, Table 9, competitor, read-out: IC50 to H2122 cells
[5] = HCC44, Tables 3 and 4, read-out: IC50 (uM) vs indicated non-small cell lung cancer cell line HCC44
[6] = Tables 3 and 4, read-out: IC50 (uM) vs indicated non-small cell lung cancer cell line H2009
[7] = NCI-H2122, Tables 3 and 4, read-out: IC50 (uM) vs indicated non-small cell lung cancer cell line H2122
[8] = 12-point dose-response starting at 50 micromolar

| SMILES | IC50 (HCC44; [1]) [µM] | IC50 (H2009; [2]) [µM] | IC50 (H2122; [3]) [µM] | also measured |
| --- | --- | --- | --- | --- |
| COc1ccc(CCNC(=O)NC(=O)c2cccc(C)c2)cc1 [SW208399-1-A] | ≥ 49.5 | 16.5 | ≥ 49.5 |  |
| COc1ccc(CCNC(=O)NC(=O)c2ccc(C(=O)NCc3ccccc3)cc2)cc1 [SW208412-1-A] | ≥ 49.5 | 2.14 | 0.27 | IC50 (H2122; [4]): 0.277 µM |
| O=C(Nc1nc2ccc(OCCCCBr)cc2s1)c1ccc(C(=O)c2ccccc2)cc1 [SW 208236] |  |  |  | IC50 (HCC44; [5]): 49.5 µM; IC50 (H2009; [6]): 49.5 µM; IC50 (H2122; [7]): ≥ 49.5 µM |
| COc1ccccc1C(=O)c1ccc(C(=O)NC(=O)NCCc2ccc(O)cc2)cc1 [SW208580-1-A] | 8.08 | 2.14 | 9.46 | IC50 (H2122; [4]): 0.8 µM |
| COc1ccc(CCNC(=O)C(=O)Nc2ccc(OCc3ccc(Br)cc3)cc2)cc1 [SW209048-1] |  |  | 0.157 | IC50 (H2073): ≥ 49.5 µM |
| C#CCOc1ccc(C(=O)c2ccc(NC(=O)C(=O)NC(C)Cc3ccc(OC)cc3)cc2)cc1 (stereo not drawn) [SW208217-1-A] | ≥ 49.5 | 12.3 | ≥ 49.5 |  |
| O=c1c(Oc2cccc(F)c2)coc2cc(OCc3cnn(-c4ccccc4)c3)ccc12 [SW208592-1] |  |  |  | AC50 (HCC44): 0.08 µM; AC50 (H2009; [8]): 16.5 µM; AC50 (H2122): 0.15 µM |
| COc1ccc(CCCCC(=O)Nc2ccc(C(=O)c3ccccc3)cc2)cc1 [SW208480-1-A] | 1.41 | ≥ 49.5 | 2.51 |  |
| O=C(Nc1nccs1)c1ccc(C(=O)c2ccccc2)cc1 [SW208771-1] |  |  |  | IC50 (HCC44; [5]): 8.43 µM; IC50 (H2009; [6]): 49.5 µM; IC50 (H2122; [7]): 32.9 µM |
| O=C(Nc1nc2ccccc2[nH]1)c1ccc(C(=O)c2ccccc2)cc1 [SW208653-1] |  |  |  | IC50 (HCC44; [5]): 3.63 µM; IC50 (H2009; [6]): 1.8 µM; IC50 (H2122; [4]): 0.0383 µM; IC50 (H2122; [7]): 0.042 µM |
| COc1ccc(CC(=O)Nc2ccc(C(=O)c3ccccc3)cc2)cc1 [SW208583-1-A] | 4.3 | ≥ 49.5 | 3.4 |  |
| COc1ccc(-c2coc3cc(OCc4cnn(-c5ccccc5)c4)ccc3c2=O)c(C)c1 [SW208767-1] |  |  |  | AC50 (HCC44): 4.06 µM; AC50 (H2009; [8]): 49.5 µM; AC50 (H2122): 2.07 µM |
| Cc1ccccc1C(=O)c1ccc(C(=O)NC(=O)NCCc2ccc(O)cc2)cc1 [SW208581-1-A] | 0.87 | 0.51 | 1.52 |  |
| O=c1c(-c2cccc(O)c2)coc2cc(OCc3cnn(-c4ccccc4)c3)ccc12 [SW208740] |  |  |  | AC50 (HCC44): 49.5 µM; AC50 (H2009; [8]): 39 µM; AC50 (H2122): 21 µM |
| CCOc1ccc(-c2coc3cc(OCc4cnn(-c5ccccc5)c4)ccc3c2=O)cc1 [SW208765-1] |  |  |  | AC50 (HCC44): 49.5 µM; AC50 (H2009; [8]): 16.5 µM; AC50 (H2122): ≥ 49.5 µM |
| COc1ccc(CCNC(=O)NC(=O)c2ccc(C(Cl)c3ccccc3)cc2)cc1 (stereo not drawn) [SW208563-1-A] | 0.03 | 0.99 | 0.06 |  |
| COc1ccc(CCNC(=O)NC(=O)c2ccc(C(=O)N3CCOCC3)cc2)cc1 [SW208408-1-A] | ≥ 49.5 | 46.9 | ≥ 49.5 |  |
| O=c1c(-c2ccc(F)cc2F)coc2cc(OCc3cnn(-c4ccccc4)c3)ccc12 [SW208760-1] |  |  |  | AC50 (HCC44): 49.5 µM; AC50 (H2009; [8]): 20.7 µM; AC50 (H2122): 0.11 µM |
| COc1ccc(CCNC(=O)NC(=O)c2ccc(COc3ccccc3)cc2)cc1 [SW208458-1-A] | 0.008 | 0.099 | 0.01 | IC50 (H2122; [4]): 0.00425 µM |
| O=c1c(Oc2ccccc2F)coc2cc(OCc3cnn(-c4ccc(Cl)cc4)c3)ccc12 [SW208469] |  |  |  | AC50 (HCC44): 49.5 µM; AC50 (H2009; [8]): 16.5 µM; AC50 (H2122): ≥ 49.5 µM |
| COc1ccc(CCNC(=O)NC(=O)c2ccc(C(=O)NC3CCC3)cc2)cc1 [SW208453-1-A] | ≥ 49.5 | 1.63 | 0.864 |  |
| C#CCOc1ccc(C(=O)c2ccc(NC(=O)C(=O)NCC(C)c3ccc(OC)cc3)cc2)cc1 (stereo not drawn) [SW208219-1-A] | ≥ 49.5 | ≥ 49.5 | ≥ 49.5 |  |
| O=C(Nc1nc(-c2ccccc2)cs1)c1ccc(C(=O)c2ccccc2)cc1 [SW209018] |  |  |  | IC50 (HCC44; [5]): 49.5 µM; IC50 (H2009; [6]): 14.8 µM; IC50 (H2122; [7]): 4.73 µM |
